This is an account of results in patent US20200270588A1, “GLUCOSYL TRANSFERASE POLYPEPTIDES AND METHODS OF USE” (Syngenta Participations AG, priority 2017, published 2020).

Molecules are shown by their SMILES. Where “and” joins values, the source holds several entries; their conditions need not be identical. Identical values can stand only once.

For assay [1], the system named is SEQ ID 47, mutant bx-type glucosyl transferase. The assay is described as follows: LC/MS glucosyl transferase assay (glucoside peak area), purified enzyme. The format is biochemical. The following applies: about 60 min, ~15 pmol enzyme, nd = not detectable. On the procedure:
(§1) In an alternative method for assaying the various enzymes, the test glucosyl transferase enzyme is reacted with substrates exactly as above except that the assay is stopped by adding an equal volume of acetonitrile. Alternatively 50 or 100 μl samples from assay reactions are added to 500 μl ethyl acetate to stop the reaction. In this case samples are then vortexed and 400 μl of the ethyl acetate partition removed, dried down, and resuspended in 100 μl 80:20 acetonitrile/water. The formation of product gluco side and/or disappearance of substrate test herbicide is then monitored directly by LC/MS. Samples are analyzed by LC-MS using an Agilent 1290 liquid chromatography system and Thermo Q-Exactive mass spectrometer. The chromatography is achieved on a Waters Acquity C18 BEH (50×2.1 mm) 1.7 μm particle size column, using a 6 minute gradient run of Water (0.2% formic acid) and Acetonitrile. The Q-Exactive is operated in positive ionisation electrospray mode, using Full scan-AIF mode, at 35,000 resolution, between 100-800 m/z. All analytes are identified from the full scan data to within at least 5 ppm accuracy of their predicted pseudo-molecular ion [M+H]^+ m/z value. In order to obtain quantitative data standard curves are run using herbicides and herbicide glucosides synthesized as standards. Where these synthetic glucosides were not available the LC/MS assay could only be used to provide relative data.
(§2) DNA sequences, optimized for E. coli codon usage, were cloned, expressed and the various proteins purified and assayed as described in the foregoing examples. Using the UDP assay (as described in examples 1, 3 and 6) the data obtained from the Zea mays bx8 w/t protein and its variants was noisy due to relatively high background rates in DMSO reagent blanks. The values reported in the table 15 were thus monitored by LC/MS as described in example 1.

Assay [2] concerns the target T1, SEQ ID 31, mutant bx-type glucosyl transferase (Zea mays, UniProt Q8W2B7, S121V).
T1 construct: 31; nd; 8.84E+06; 5.57E+06; His tag; made in house
Described as above. The assay is classed as biochemical. The following applies: about 60 min, ~15 pmol enzyme, relative quantification only. On the procedure: as §1, §2

Assay [3] addresses T2, SEQ ID 33, mutant bx-type glucosyl transferase (Zea mays, UniProt Q8W2B7, A285K).
T2 construct: 33; 1.70E+05; 3.59E+07; 9.27E+06; His tag; made in house
Described as above. The format is biochemical. The following applies: about 60 min, ~15 pmol enzyme, relative quantification only. As for the experimental part:
as §1, §2

Assay [4] concerns transgenic tobacco plants expressing SEQ ID NO: 16. The assay is described as follows: Glass house spray test on tobacco, percent damage. The format is in vivo. To be noted: for tolerance compared with w/t and SEQ ID NO: 1 plants: 200 and 500 g/ha, 14 DAT, several events. The source says:
(§3) Three transgenic populations of about forty tobacco plants and comprising, a glucosyl transferase gene encoding either zmBX8 (SEQ ID NO 2) or zmBX9 (SEQ ID NO 1) were thus produced. A sub-set of about 30 plants were selected on the basis of similar size from each population for spray testing. The plants were then sprayed with 30 g/ha of Compound VI. VI was mixed in water with 0.2-0.25% X-77 surfactant and sprayed from a boom on a suitable track sprayer moving at 2 mph with the nozzle about 2 inches from the plant tops. Spray volume was 200 l/ha. Plants were assessed for damage and scored at 7 and 14 days after treatment (DAT).
In a further example, Zea mays BX8 or BX9 or orthologues of BX8/9, are altered to carry amino acid variants at various positions which increase tolerance to the alcohol and aminal PSII herbicides as described in the example above. DNA sequences that encode these polypeptides (optimized for tobacco or, optionally, codon optimized according to a target crop such as soybean) were prepared for tobacco transformation as described in example 10. […] Transgenic tobacco populations expressing SEQ ID NOs 16 and 17 were generated alongside a population expressing the parental zmBX9 sequence (SEQ ID 1). […] Plants were assessed for damage and scored at 14 days after treatment (DAT). The results are depicted in Table 19 and also in FIG. 6.

Assay [5] relates to wild type tobacco plants. The assay is described as follows: Glass house spray test on tobacco, percent damage. The assay is classed as in vivo. To be noted: 14 DAT. On the procedure: Once rooted, plantlets are transferred from agar and potted into 50% peat, 50% John Innes Soil No. 3 with slow-release fertilizer in 3 inch round pots and left regularly watered to establish for 8-12d in the glass house. Glass house conditions are about 24-27° C. day; 18-21° C. night and approximately a 14h photoperiod. Humidity is adjusted to ˜65% and light levels used are up to 2000 μmol/m^2 at bench level.
as §3
(§4) In a further example, Zea mays BX8 or BX9 or orthologues of BX8/9, are altered to carry amino acid variants at various positions which increase tolerance to the alcohol and aminal PSII herbicides as described in the example above. DNA sequences that encode these polypeptides (optimized for tobacco or, optionally, codon optimized according to a target crop such as soybean) were prepared for tobacco transformation as described in example 10. […] Transgenic tobacco populations expressing SEQ ID NOs 16 and 17 were generated alongside a population expressing the parental zmBX9 sequence (SEQ ID 1). These populations were sprayed with herbicide V and VI at rates of 200 and 500 g/ha. Plants were assessed for damage and scored at 14 days after treatment (DAT). The results are depicted in Table 19 and also in FIG. 6.

Assay [6] relates to transgenic tobacco plants expressing SEQ ID NO: 17. The assay is described as follows: Glass house spray test on tobacco, percent damage. The assay is classed as in vivo. The following applies: for tolerance compared with w/t and SEQ ID NO: 1 plants: 200 and 500 g/ha, 14 DAT, several events.
Source text: as §3, §4

The mark [7] stands for this setting: 1 kg/ha, events 7937, 7940, 7952, 8039, 8071, 8106 expressing SEQ ID NOs 16 and 17, data not shown.

T2 sequence (Q8W2B7 whole entry A285K): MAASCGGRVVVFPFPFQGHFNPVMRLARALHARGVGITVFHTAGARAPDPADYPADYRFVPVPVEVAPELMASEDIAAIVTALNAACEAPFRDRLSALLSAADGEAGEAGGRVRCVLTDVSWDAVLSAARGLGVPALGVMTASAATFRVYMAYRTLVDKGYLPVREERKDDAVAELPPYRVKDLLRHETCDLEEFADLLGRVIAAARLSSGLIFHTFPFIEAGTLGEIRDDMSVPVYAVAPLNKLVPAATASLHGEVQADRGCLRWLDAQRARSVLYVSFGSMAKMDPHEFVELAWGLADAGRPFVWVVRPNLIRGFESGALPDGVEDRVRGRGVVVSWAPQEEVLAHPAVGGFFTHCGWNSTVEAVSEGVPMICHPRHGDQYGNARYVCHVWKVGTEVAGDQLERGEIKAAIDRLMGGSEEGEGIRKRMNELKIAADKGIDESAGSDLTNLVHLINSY
T1 sequence (Q8W2B7 whole entry S121V): as the sequence (Q8W2B7 whole entry A285K) above, with S121V, K285A counted along it

For `CON1C(=O)N(c2cc(C(F)(F)F)ccn2)C(O)[C@@H]1C` (stereo partly shown) [Compound VI], the “integrated peak area of beta-glucoside product” value in assay [1] is 1.68E+05 and 1.05E+05; in assay [2], 8.84E+06 and 1.04E+07; in assay [3], 3.59E+07 and 3.45E+07. The “tolerance” value in assay [4] (setting [7]) and in assay [6] (setting [7]) was “substantially fully tolerant” each time. In addition, the “tolerance compared with w/t and SEQ ID NO: 1 plants” value in assay [4] and in assay [6] was “much superior tolerance” throughout. The percent damage in assay [5] (30 g/ha compound VI, plants A, B, C) is 75% and 95% and 85%; in assay [5] (500 gai/ha VI, WT tobacco plants 1-9), 100%.
For `CN1CC(O)N(c2cc(C(F)(F)F)ccn2)C1=O` (stereo not shown) [Compound V], the “integrated peak area of beta-glucoside product” value in assay [1] was 8.67E+05 and 6.30E+05; in assay [2], 5.57E+06 and 5.59E+06; in assay [3], 9.27E+06 and 9.76E+06. The “tolerance compared with w/t and SEQ ID NO: 1 plants” value in assay [4] and in assay [6] was “much superior tolerance” in each case. For the same compound, the percent damage in assay [5] (200 gai/ha V, WT tobacco plants 1-9) was determined as 100%; in assay [5] (500 gai/ha V, WT tobacco plants 1-9) it was 100%.
